Twelve compounds from patent US20210009541A1, “FUNGICIDAL OXADIAZOLES” (Bayer Aktiengesellschaft, priority 2018, published 2021) can be followed below.

For one series, the system named is Phakosporra pachirrhizi. Kind of series: Example D: fungicidal activity against Phakosporra pachirrhizi (spore germination, 96-well imaging). In kind it is cell-based. Conditions: 30 ppm of active ingredient; wild-type spores, 4 hours at 21° C.; read-out: efficacy (inhibition of the fungal germination). The protocol: Example D: Fungicidal Activity Against Phakosporra pachirrhizi
Cryo-conserved wild-type spores of the biotroph Phakosporra pachirrhizi are humidified in dedicated chamber overnight at 18° C. in the dark. The next day, a solution of spores at 7×10^3 sp/ml is prepared in a water based growth medium (DH2O+0.2 mM MOPS at pH 7+0.01% Tween 20) and spores are distributed in a 96-MTPS (final volume of 200 μL per well) thanks to a dispenser robot. Each molecule is tested at 10 doses (from 30 to 0.002 ppm final concentration) and accordingly 1.2 μL of each dilution is transferred in dedicated well to end-up with a final concentration of 0.6% DMSO. Wild-type spores and molecules are incubated for 4 hours at 21° C., and 6 images par well are then acquired with Transmitted Light images (Image Xpress Micro microscope, Molecular Devices, Objective 10λ, 6 images per well). Detection and quantification of the number of germinated spores per image is performed with a dedicated in-house developed algorithm (MetaXpress software, Molecular Devices).

Series [1] has as its system Colletotrichum lindemuthianum. Kind of series: Example E: Colletotrichum lindemuthianum in vitro cell test. It counts as cell-based. Conditions: 144 h, 20 ppm of active ingredient, liquid culture, 6 days incubation, read-out: efficacy (inhibition of fungal growth). As for the experimental part: Example E: Colletotrichum lindemuthianum In Vitro Cell Test
• Solvent: DMSO Culture medium: 14.6 g anhydrous D-glucose (VWR), 7.1 g Mycological Peptone (Oxoid), 1.4 g granulated Yeast Extract (Merck), QSP 1 liter • Inoculum: spores suspension
Active ingredients were solubilized in DMSO and the solution used to prepare the required range of concentrations. The final concentration of DMSO used in the assay was 1%.
A spore suspension of C. lindemuthianum was prepared and diluted to the desired spore density.
The active ingredients were evaluated for their ability to inhibit spores germination and mycelium growth in liquid culture assay. The compounds were added in the desired concentration to the culture medium with spores. After 6 days incubation, fungi-toxicity of compounds was determined by spectrometric measurement of mycelium growth. Inhibition of fungal growth was determined by comparing the absorbance values in wells containing the active ingredient with the absorbance in control wells without active ingredient.

The nature of series [2]: LogP by HPLC on reversed phase columns (EEC directive 79/831 Annex V.A8). In kind it is physicochemical. Conditions: for chromatographic logP: reversed phase HPLC column, method [a]: LC-UV, acidic range, 0.1% formic acid in water and acetonitrile as eluent. The protocol:
[table] If more than one Log P value is available within the same method, all the values are given and separated by “+”. […] Lambda-max-values were determined using UV-spectra from 200 nm to 400 nm and the peak values of the chromatographic signals.

Marks after values point to notes of the source that are not given here.

As for `FC(F)(F)c1nc(-c2ccc3[nH]ncc3c2)no1` [Compound I-005, 5-[5-(Trifluoromethyl)-1,2,4-oxadiazol-3-yl]-1H-indazole], the inhibition at 30 ppm with Phakosporra pachirrhizi fell in the range of 90 to 100%. The inhibition at 20 ppm in series [1] was 90 to 100%. The same compound had a chromatographic logP in series [2] of 2.68.

Turning to `COCCn1ncc2cc(-c3noc(C(F)(F)F)n3)ccc21` [Compound I-013, 1-(2-Methoxyethyl)-5-[5-(trifluoromethyl)-1,2,4-oxadiazol-3-yl]-1H-indazole], the inhibition at 30 ppm with Phakosporra pachirrhizi is 80 to 89%. For the same compound, in series [1], the inhibition at 20 ppm is 80 to 89%. The compound also displayed a chromatographic logP in series [2] of 3.31.

Consider `COCCn1cc2cc(-c3noc(C(F)(F)F)n3)ccc2n1` [Compound I-014, 2-(2-Methoxyethyl)-5-[5-(trifluoromethyl)-1,2,4-oxadiazol-3-yl]-2H-indazole], for which the inhibition at 30 ppm in the series on Phakosporra pachirrhizi was in the range of 70 to 79%. Also, the inhibition at 20 ppm in series [1] lay within 80 to 89%. The same compound had a chromatographic logP in series [2] of 2.96.

For `CON(C(C)=O)C1CCCc2cc(-c3noc(C(F)(F)F)n3)ccc21` (centres unmarked) [Compound I-020, N-Methoxy-N-{6-[5-(trifluoromethyl)-1,2,4-oxadiazol-3-yl]-1,2,3,4-tetrahydronaphthalen-1-yl}acetamide], the inhibition at 30 ppm in the series on Phakosporra pachirrhizi fell in the range of 70 to 79%. The inhibition at 20 ppm in series [1] was in the range of 90 to 100%. This compound also came in with a chromatographic logP in series [2] of 3.79.

As to `FC(F)(F)c1nc(-c2ccc3ncn(Cc4ccccc4)c3c2)no1` [Compound I-059], in series [2], the LogP was 3.06^[a].

Regarding `Cn1cnc2cc(-c3noc(C(F)(F)Cl)n3)ccc21` [Compound I-060], in series [2], the LogP was 1.86^[a].

Consider `Fc1cc2[nH]ncc2cc1-c1noc(C(F)(F)F)n1` [Compound I-061], for which, in series [2], the LogP was 2.61^[a].

Take `Fc1cc2[nH]ncc2cc1-c1noc(C(F)(F)Cl)n1` [Compound I-062]: in series [2], the LogP is 2.78^[a].

With `FC(F)(Cl)c1nc(-c2ccc3[nH]ncc3c2)no1` [Compound I-063], the LogP in series [2] is 2.84^[a].

Turning to `Fc1cc2c(cnn2Cc2ccccc2)cc1-c1noc(C(F)(F)F)n1` [Compound I-064], the LogP in series [2] was 4.28^[a].

Regarding `Fc1cc2nn(Cc3ccccc3)cc2cc1-c1noc(C(F)(F)F)n1` [Compound I-065], the LogP in series [2] is 3.92^[a].

With `Fc1cc2nn(Cc3ccccc3)cc2cc1-c1noc(C(F)(F)Cl)n1` [Compound I-066], the LogP in series [2] is 4.11^[a].
